Measured values: patent US20100209536A1, “Methods and Kits for Use in the Treatment and Prevention of Diseases or Conditions of the Immune System or Infectious Diseases” (The Brigham and Women's Hospital, Inc., priority 2006, published 2010)

Experiments:
Assay type in all cases: in vivo, human
[1] = test system: severe asthma exacerbations in childhood asthmatics; test: Childhood Asthma Management Program: baseline serum 25(OH)D and outcomes in childhood asthmatics on inhaled corticosteroid
Description: We measured 25(OH)D levels in stored serum (collected on entry into the trial) from 305 childhood asthmatics who were randomized to the inhaled corticosteroid arm of the multi-center Childhood Asthma Management Program. We then analyzed baseline 25(OH)D levels for their association with severe asthma exacerbations (defined as emergency room visits or hospitalizations for asthma) over the course of the 4-year trial.

[2] = test system: respiratory infections in the 2-year old children; test: Project Viva antioxidant study: maternal intake and respiratory infections in 2-year old children
Description: (§1) Study subjects were enrolled in Project Viva, as described above. Recruitment and retention procedures have previously been published (Gillman et al., J. Pediatr. 144:240-245, 2004). We obtained information directly from participants and from medical records as detailed previously (Rifas-Shiman, Paediatr. Perinat. Epidemiol. 20:35-42, 2006). Data collected from interviews and questionnaires included demographics (infant gender, maternal marital status, and race), socioeconomic status (education and household income), and reproductive history (maternal gravidity, pre-pregnancy height and body mass index, and smoking). Questionnaires that inquired about infant health, feeding, and the home environment were administered when the child was 6 months, 1 year, and 2 years of age. Among 2,128 delivered infants in Project Viva, we excluded 228 participants because of missing first and second trimester diet assessment data and an additional 37 participants with a gestation of less than 34 completed weeks.
We assessed maternal diet using semi-quantitative food-frequency questionnaires (FFQ) validated for use during pregnancy (Fawzi et al., Ann. Epidemiol. 14:754-762, 2004), and used in several of our previous studies of maternal diet and offspring outcomes (Oken et al., Am. J. Epidemiol. 160:774-783, 2004; Huh et al., Int. J. Epidemiol. 34:378-384, 2005; Gillman et al., Circulation 110:1990-1995, 2004). As noted above, the FFQ used at the 1st visit reflected intakes in the 1st trimester; the time referent was “during this pregnancy,” that is from the date of the last menstrual period until the assessment, at an average of about 10 weeks gestation. […] Also as noted above, the FFQ used at the 2nd visit (26 to 28 weeks of gestation) reflected intakes during the 2nd trimester; the time referent was “during the past 3 months.” The 2nd trimester instrument was the same as that for the 1st trimester except that we assessed use of vitamins/supplements as part of the self-completed FFQ. […]

[3] = test system: any wheeze in the first 2 yrs; test: Project Viva antioxidant study: maternal intake and any wheeze in the first 2 yrs; settings: for Any wheeze in the first 2 yrs, Univariate Model OR (95% CI) / Any wheeze in the first 2 yrs, Multivariable Model OR (95% CI): including supplements; for Any Wheeze, Foods Only OR / Any Wheeze, Supplements Only OR: univariate; for Any Wheeze, Foods Only OR: intake from foods only; for Any Wheeze, Supplements Only OR: intake from supplements only
Description: as §1
(§2) We assessed maternal diet using semi-quantitative food-frequency questionnaires (FFQ) validated for use during pregnancy (Fawzi et al., Ann. Epidemiol. 14:754-762, 2004), and used in several of our previous studies of maternal diet and offspring outcomes (Oken et al., Am. J. Epidemiol. 160:774-783, 2004; Huh et al., Int. J. Epidemiol. 34:378-384, 2005; Gillman et al., Circulation 110:1990-1995, 2004). As noted above, the FFQ used at the 1st visit reflected intakes in the 1st trimester; the time referent was “during this pregnancy,” that is from the date of the last menstrual period until the assessment, at an average of about 10 weeks gestation. To assess vitamin and supplement intake during the 1st trimester, we administered a separate interview that queried dose, duration, and brand/type of multivitamin, prescribed prenatal vitamins, and supplements. Also as noted above, the FFQ used at the 2nd visit (26 to 28 weeks of gestation) reflected intakes during the 2nd trimester; the time referent was “during the past 3 months.” The 2nd trimester instrument was the same as that for the 1st trimester except that we assessed use of vitamins/supplements as part of the self-completed FFQ.
(§3) To calculate intake of nutrients, we again used the Harvard nutrient composition database, which contains food composition values from the U.S. Department of Agriculture, supplemented by other data sources (U.S. Department of Agriculture ARS. USDA National Nutrient Database for Standard Reference, Release 14, 5R14; 2001). All nutrients were adjusted for total energy intake using the nutrient residuals method (Willett, Am. J. Clin. Nutr. 45:354-360, 1987). Mean nutrient intakes from the 1st and 2nd trimesters were used as the exposure in the analyses. If a participant only completed one FFQ, then nutrients calculated from that questionnaire were taken as the exposure of interest. One thousand one hundred and thirty-five (88.0%) of the 1,290 participants completed both FFQs, 96 (7.4%) completed the first trimester FFQ only, and 59 (4.6%) completed the second trimester FFQ only.
(§4) We ascertained the wheeze outcomes from questions from the First Year and Second Year Questionnaires: “since your child was born/since your child was […], has he/she ever had wheezing (or whistiling in the chest)?” “Any wheeze” was defined as a positive response to the question at either the first or second year questionnaire. “Recurrent wheeze” was defined as positive responses to the questions in both the first and second year questionnaires. […] “Respiratory infections” was defined as positive responses to one of three questions: “since your child was born/12 months old, have you been told by a health care professional (such as a doctor, physician assistant, or nurse practitioner) that your child has: (a) bronchiolitis; (b) pneumonia; (c) bronchitis, croup, or any other respiratory infection?” on either the first or second year questionnaires. […]

[4] = test system: recurrent wheeze in the first 2 yrs; test: Project Viva antioxidant study: maternal intake and recurrent wheeze in the first 2 yrs; settings: for Recurrent wheeze in the first 2 yrs, Multivariable Model OR (95% CI) / Recurrent wheeze in the first 2 yrs, Univariate Model OR (95% CI): including supplements; for Recurrent Wheeze, Foods Only OR / Recurrent Wheeze, Supplements Only OR: univariate; for Recurrent Wheeze, Foods Only OR: intake from foods only; for Recurrent Wheeze, Supplements Only OR: intake from supplements only
Description: as §1, §2, §3, §4

[5] = 2nd vs 1st (lowest) quartile of maternal intake
[6] = 3rd vs 1st (lowest) quartile of maternal intake
[7] = 4th (highest) vs 1st (lowest) quartile of maternal intake
[8] = 4th (highest) vs 1st (lowest) quartile of maternal intake, listed as zinc
[9] = 4th (highest) vs 1st (lowest) quartile

25-Hydroxyvitamin D [25(OH)D]
Association with lung function, bronchodilator response, or airway responsiveness ([1]; 305 childhood asthmatics on inhaled corticosteroid): no associations | OR, severe asthma exacerbations over the course of the 4-year trial ([1]; children with 25(OH)D levels ≦30 ng/ml, on inhaled corticosteroid, adjusted for age, sex, height, baseline FEV1): 1.76

[Zn] [Zinc, zinc]
Association of total maternal intake with respiratory infections in the children [2]: not associated | Any wheeze in the first 2 yrs, Univariate Model OR (95% CI) ([3]; 2nd vs 1st (lowest) quartile of maternal intake, calorie adjusted, n = 1,161): 0.77 (0.55, 1.08) | Any wheeze in the first 2 yrs, Multivariable Model OR (95% CI) [3, 5]: 0.89 (0.61, 1.29) | Any Wheeze, Foods Only OR ([3]; 2nd vs 1st (lowest) quartile): 0.85 | Any Wheeze, Supplements Only OR ([3]; 2nd vs 1st (lowest) quartile): 0.98 | Any wheeze in the first 2 yrs, Multivariable Model OR (95% CI) [3, 6]: 0.85 (0.59, 1.24) | Any wheeze in the first 2 yrs, Univariate Model OR (95% CI) [3, 6]: 0.67 (0.47, 0.94)^5 | Any Wheeze, Foods Only OR ([3]; 3rd vs 1st (lowest) quartile): 0.60 | Any Wheeze, Supplements Only OR ([3]; 3rd vs 1st (lowest) quartile): 0.67 | Any wheeze in the first 2 yrs, Multivariable Model OR (95% CI) [3, 7]: 0.59 (0.41, 0.88)^5 | Any wheeze in the first 2 yrs, Univariate Model OR (95% CI) [3, 7]: 0.49 (0.34, 0.70)^5 | Any wheeze in the first 2 yrs, Multivariable Model OR (95% CI) [3, 8]: 0.59 | Any Wheeze, Foods Only OR [3, 9]: 0.60 | Any Wheeze, Supplements Only OR [3, 9]: 0.63 | Association of total maternal intake with any wheeze in univariable models ([3]; total intakes): associated with lower risks | Recurrent wheeze in the first 2 yrs, Multivariable Model OR (95% CI) [4, 5]: 0.61 (0.35, 1.06) | Recurrent wheeze in the first 2 yrs, Univariate Model OR (95% CI) ([4]; 2nd vs 1st (lowest) quartile of maternal intake, n = 1,038): 0.56 (0.34, 0.92) | Recurrent Wheeze, Foods Only OR ([4]; 2nd vs 1st (lowest) quartile): 0.70 | Recurrent Wheeze, Supplements Only OR ([4]; 2nd vs 1st (lowest) quartile): 0.94 | Recurrent wheeze in the first 2 yrs, Multivariable Model OR (95% CI) [4, 6]: 0.89 (0.53, 1.49) | Recurrent wheeze in the first 2 yrs, Univariate Model OR (95% CI) [4, 6]: 0.73 (0.46, 1.17) | Recurrent Wheeze, Foods Only OR ([4]; 3rd vs 1st (lowest) quartile): 0.65 | Recurrent Wheeze, Supplements Only OR ([4]; 3rd vs 1st (lowest) quartile): 0.59 | Recurrent wheeze in the first 2 yrs, Multivariable Model OR (95% CI) [4, 7]: 0.49 (0.27, 0.87) | Recurrent wheeze in the first 2 yrs, Univariate Model OR (95% CI) [4, 7]: 0.41 (0.24, 0.69)^5 | Recurrent wheeze in the first 2 yrs, Multivariable Model OR (95% CI) [4, 8]: 0.49 | Recurrent Wheeze, Foods Only OR [4, 9]: 0.68 | Recurrent Wheeze, Supplements Only OR [4, 9]: 0.51
